{
  "source": "paper PMC6681348",
  "about": "(Biomolecules, 2019)",
  "key": {"trypsin [1]": {"test_system": "trypsin", "assay": "Trypsin inhibition assay", "type": "biochemical", "settings": "substrate Phe-Pro-Arg-AMC; for trypsin inhibitory activity (in words): 16 concentrations, duplicates", "experimental": "(§1) The inhibitory activity of peptides towards trypsin and chymotrypsin was tested the same as detailed in Wang’s study. Peptides were initially prepared in a range of 10^−3–10^−6 M and then diluted to 16 concentrations. Each dilution was tested in duplicates. Additionally, Phe-Pro-Arg-AMC and Succinyl-Ala-Ala-Pro-Phe-NHMec (obtained from Bachem, UK) were served as substrates for trypsin and chymotrypsin, respectively."}, "chymotrypsin": {"target": "chymotrypsin", "assay": "Chymotrypsin inhibition assay", "type": "biochemical", "settings": "substrate Succinyl-Ala-Ala-Pro-Phe-NHMec, duplicates", "experimental": "as §1"}, "horse red blood cells": {"test_system": "horse red blood cells", "settings": "horse red blood cells 4% v/v, 37 °C, 2 h, concentrations up to 512 µM; 1% Triton X-100 = 100% haemolysis", "experimental": "As described in the previous study, a suspension of horse red blood cells (4%, v/v) (TCS Biosciences, Botolph Claydon, Buckingham, UK) was incubated with peptides of the concentration range of 1 µM to 512 µM at 37 °C for 2 h to determine the peptide haemolytic activity. The positive control employed 1% TritonX-100 (Sigma, UK)."}, "[2]": {"test_system": "Staphylococcus aureus (NCTC 10788)", "settings": "MHB, broth dilution, 1-512 µM two-fold, 5 × 10^5 cfu/mL, seven replicates", "experimental": "(§2) Staphylococcus aureus (NCTC 10788), Escherichia coli (NCTC 10418), and Candida albicans (NCPF 1467) were applied in the antimicrobial test. They all were cultured in Mueller-Hinton Broth (MHB). […] Peptides were incubated with subcultured bacteria cells (5 × 10^5 cfu/mL) and each concentration was performed in seven replicates."}, "[3]": {"test_system": "Candida albicans (NCPF 1467)", "settings": "MHB, broth dilution, 1-512 µM two-fold, 5 × 10^5 cfu/mL, seven replicates", "experimental": "as §2"}, "[4]": {"test_system": "Escherichia coli (NCTC 10418)", "settings": "MHB, broth dilution, 1-512 µM two-fold, 5 × 10^5 cfu/mL, seven replicates", "experimental": "as §2"}, "all tested microbes": {"test_system": "all tested microbes", "settings": "single loop synthesized alone; cited from earlier work", "text": "The results just corresponded to the physicochemical properties of these two peptides."}, "trypsin [5]": {"test_system": "trypsin", "assay": "trypsin cleavage", "settings": "cited from earlier work"}, "trypsin [6]": {"test_system": "trypsin", "assay": "trypsin cleavage assay", "settings": "up to 20 min"}, "trypsin [7]": {"target": "trypsin", "settings": "read-out: Ki, trypsin inhibition; cited from earlier work", "text": "Odorous frogs are distributed in East Asia and the surrounding areas, and they are named because of their smelly skin secretion, which plays a fundamental role in defensive systems. To date, hundreds of functional peptides have been isolated from Odorrana skin secretion, not only many potent antimicrobial peptides but also trypsin inhibitors. […] Combined with the data obtained from trypsin cleavage, each segment of both Kunitzin-OV and Kunitzin-RE was cleaved by trypsin via typical cleavage site Lys and Arg. […] Therefore, we assumed that the Lys close to the region of the protease-binding loop could act as a competitive position for trypsin activity ..."}},
  "note": "“Also recorded” adds a separate entry of the source. Like-named read-outs stand apart in the source and are kept apart here. Positions of bridges follow the written chain, without caps; N, C: chain ends. Residues, ends and D or L forms follow the SMILES beside them. No end group written: not given here.",
  "data": [
    {"molecule": "CC(C)C[C@H](NC(=O)[C@H](C)N)C(=O)N[C@@H](CCCCN)C(=O)N[C@@H](Cc1ccc(O)cc1)C(=O)N1CCC[C@H]1C(=O)N[C@@H](Cc1ccccc1)C(=O)N[C@@H](CCCNC(=N)N)C(=O)N[C@H]1CSSC[C@@H](C(=O)O)NC(=O)[C@H](Cc2ccccc2)NC(=O)[C@H](C)NC(=O)[C@H](C)NC(=O)[C@H](Cc2ccccc2)NC1=O", "note": "[F^9-Kunitzin-OV] (H-ALKYPFRCFAAFC-OH; disulfide 8-13 (inferred); N-terminus and C-terminus assumed)", "values": [
      {"measurement": "trypsin inhibitory activity (in words)", "setting": "trypsin [1]", "value": "undetected; also recorded: disappeared; also recorded: vanished"},
      {"measurement": "trypsin inhibitory activity (in words)", "setting": "trypsin [1]; listed as site-substituted analogue", "value": "eliminated"},
      {"measurement": "Ki", "setting": "chymotrypsin; 16 concentrations from 10^-3-10^-6 M, Morrison plot, read-out: Ki, chymotrypsin inhibitory activity", "value": "11800 ± 2090", "unit": "nM"},
      {"measurement": "chymotrypsin inhibitory activity (in words)", "setting": "chymotrypsin; 16 concentrations", "value": "optimized chymotrypsin inhibitory activity"}
    ]},
    {"molecule": "CC(C)C[C@H](NC(=O)[C@H](C)N)C(=O)N[C@@H](CCCCN)C(=O)N[C@@H](Cc1ccc(O)cc1)C(=O)N1CCC[C@H]1C(=O)N[C@@H](Cc1ccccc1)C(=O)N[C@@H](CCCNC(=N)N)C(=O)N[C@H]1CSSC[C@@H](C(=O)O)NC(=O)[C@H](Cc2ccccc2)NC(=O)[C@H](C)NC(=O)[C@H](C)NC(=O)[C@H](CCCCN)NC1=O", "note": "[Kunitzin-OV] (H-ALKYPFRCKAAFC-OH; disulfide 8-13)", "values": [
      {"measurement": "haemolytic activity", "setting": "horse red blood cells", "value": "less than 10%"},
      {"measurement": "Minimum Inhibitory Concentration S. aureus", "setting": "[2]", "value": 512, "unit": "µM"},
      {"measurement": "Minimum Inhibitory Concentration C. albicans", "setting": "[3]", "value": 512, "unit": "µM"},
      {"measurement": "Minimum Inhibitory Concentration E. coli", "setting": "[4]", "value": 512, "unit": "µM"}
    ]},
    {"molecule": "-CKAAFC- (disulfide) [single disulfide loop of kunitzins synthesized alone by Chen and colleagues]", "values": [
      {"measurement": "antimicrobial activity (in words)", "setting": "all tested microbes", "value": "no activity was observed"}
    ]},
    {"molecule": "AAKIILNPKFRCKAAFC", "values": [
      {"measurement": "not cleaved", "setting": "trypsin [5]", "value": "this did not happen to Kunitzin-RE"}
    ]},
    {"molecule": "ALKYPFRCKAAFC", "values": [
      {"measurement": "fragment found", "setting": "trypsin [6]", "value": "ALKYPFR, first_seen, 0 min"}
    ]},
    {"molecule": "AVNIPFKVHFRCKAAFC (disulfide 12-17 (inferred)) [OGTI]", "values": [
      {"measurement": "Ki", "setting": "trypsin [7]", "value": 400, "unit": "nM"}
    ]},
    {"molecule": "ovomucoid inhibitor (chicken): chicken egg white trypsin inhibitor Type III-O, more than 200 amino acid residues, served as a contrast (protein, UniProt P01005 25-210, looked up) Ovomucoid: AEVDCSRFPNATDKEGKDVLVCNKDLRPICGTDGVTYTNDCLLCAYSIEFGTNISKEHDGECKETVPMNCSSYANTTSEDGKVMVLCNRAFNPVCGTDGVTYDNECLLCAHKVEQGASVDKRHDGGCRKELAAVSVDCSEYPKPDCTAEDRPLCGSDNKTYGNKCNFCNAVVESNGTLTLSHFGKC", "values": [
      {"measurement": "trypsin inhibitory activity (in words)", "setting": "trypsin [1]", "value": "more potent inhibitory activity than Kunitzin-OV"},
      {"measurement": "trypsin inhibitory activity (in words)", "setting": "trypsin [1]; listed as chicken egg white trypsin inhibitor Type III-O", "value": "faster and stronger inhibitory efficacy on trypsin than Kunitzin-OV"},
      {"measurement": "Ki", "setting": "trypsin [1]; Morrison plot, contrast inhibitor", "value": "3.49 ± 0.505", "unit": "nM"}
    ]}
  ]
}
